Laboratory results from patent US5861400A, “Pharmaceutical compounds” (Xenova Limited, priority 1994, dated 1999).

How the values were obtained:
AR 1.0 cells [1] = test: Drug accumulation assay (tritiated daunorubicin, AR 1.0 cells); type: cell-based, mouse; conditions: for IC50 / Emax: Mus musculus; for IC50: 1 h, daunorubicin accumulation, 37° C., DNR 2 μM; for Emax / MAX accumulation (% 100 μm VRP): 100% = accumulation with 100 μM Verapamil, compounds 100 nM to 100 μM, 1 hr; for Emax: read-out: MAX accumulation (% 100 μm VRP)
Method: The EMT6 mouse mammary carcinoma cell line and the MDR resistant subline AR 1.0 were cultured in RPMI 1640 medium containing 10% foetal calf serum and 2mM glutamine at 37° C. in 5% CO2. Cells were passaged between 1 in 200 and 1 in 2000 in the case of the parental cell line and between 1 in 20 and 1 in 200 in the case of the MDR resistant subline, after trypsinisation (0.25% trypsin, 0.2 gl^-1, EDTA).
1. Drug accumulation assay
AR 1.0 cells were seeded into 96 well opaque culture plates (Canberra Packard). The assay medium contained a mixture of tritiated Daunorubicin (DNR), a cytotoxic agent, and unlabelled DNR (0.25μ Ci/ml; 2 μM). Compounds of formula A were serially diluted in assay medium over a range of concentrations from 100 nM to 100 μM. The cells were incubated at 37° C. for 1 hr before washing and counting of cell associated radioactivity. Each assay included a titration of the known resistance modifying agent Verapamil as positive control. Results were expressed as % maximum accumulation where 100% accumulation is that observed in the presence of 100 μM Verapamil.

AR 1.0 cells [2] = test: Proliferation/toxicity assay, compound alone and with cytotoxic agent (sulphorhodamine B); type: cell-based, mouse; conditions: 0.5-1 μM, alone

| IC50 (AR 1.0 cells [1]) | Compound | Emax (AR 1.0 cells [1]) | further results |
| --- | --- | --- | --- |
| 1 µM | Cn1c(=O)/c(=C/c2ccccc2)nc(OCCCN2C(=O)CCC2=O)/c1=C/c1ccccc1 [Compound 1934, (3Z,6Z)-3,6-Dibenzylidene-1-methyl-5-(3-succinmidopropoxy)-3,6-dihydro-2-pyrazinone] | – | – |
| – | COc1ccc(/C=c2/c(=O)[nH]/c(=C\c3cn(C(=O)OC(C)(C)C)c4ccccc34)c(=O)n2C)cc1 [Compound 1565, (3Z,6Z)-6-(4-Methoxybenzylidene)-1-methyl-3-(1-tert-butoxycarbonyl-3-indolyl)methylene-2,5-piperazinedione] | 37.3% | – |
| – | COc1ccc(/C=c2/c(=O)[nH]/c(=C\c3cccs3)c(=O)n2C)cc1 [Compound 1564, (3Z,6Z)-6-(4-Methoxybenzylidene)-1-methyl-3-(2-thienylmethylene)-2,5-piperazinedione] | 46.3% | – |
| – | Cn1c(=O)/c(=C/c2ccccc2)[nH]c(=O)/c1=C/c1cccs1 [Compound 1569, (3Z,6Z)-3-Benzylidene-1-methyl-6-(2-thienylmethylene)-2,5-piperazinedione] | 46% | – |
| – | Cn1c(=O)/c(=C/c2cn(C(=O)OC(C)(C)C)c3ccccc23)nc(OCCCN2C(=O)c3ccccc3C2=O)/c1=C/c1ccccc1 [Compound 1895, (3Z,6Z)-6-Benzylidene-1-methyl-5-(3-phthalimidopropoxy)-3-(l-tert-butoxycarbonyl-3-indolyl)methylene-3,6-dihydro-2-pyrazinone] | 12% | – |
| – | (3Z,6Z)-3-Benzylidene-6-(2-furyl)-1,4-dimethyl-2,5-piperazinedione [Compound 1799] | – | MAX accumulation (% 100 μm VRP) (AR 1.0 cells [1]): 40.0% |
| – | (3Z,6Z)-6-Benzylidene-3-furylidene-1,4-dimethyl-2,5-piperazinedione [Compound 1836] | – | MAX accumulation (% 100 μm VRP) (AR 1.0 cells [1]): 14.0% |
| 10 µM | Cn1c(=O)/c(=C/c2ccccc2)n(CCCN2C(=O)CCC2=O)c(=O)/c1=C/c1ccccc1 [Compound 1932, (3Z,6Z)-3,6-Dibenzylidene-4-methyl-1-(3-succinimidopropyl)-2,5-piperazinedione] | – | – |
| 20 µM | Cn1c(=O)/c(=C/c2ccccc2[N+](=O)[O-])n(C)c(=O)/c1=C/c1cccs1 [Compound 1877, (3Z,6Z)-1,4-dimethyl-6-(2-nitrobenzylidene)-3-(2-thienylmethylene)-2,5-piperazinedione] | – | – |
| 80 µM | COc1ccc(/C=c2/c(=O)n(C)/c(=C\C=Cc3ccccc3)c(=O)n2C)cc1 [Compound 1777, (3Z,6Z)-3-Cinnamylidene-6-(4-methoxybenzylidene)-1,4-dimethyl-2,5-piperazinedione] | 50% | – |
| – | (3Z,6Z)-6-Benzylidene-1-methyl-3-(1-tert-butoxycarbonyl-3-(l-tert-butoxycarbonyl-3-indolyl)methylene-2,5-piperazinedione [Compound 1894] | – | MAX accumulation (% 100 μm VRP) (AR 1.0 cells [1]): 36.0% |
| – | COc1cccc2c1C(=O)c1c(O)c3c(c(O)c1C2=O)C[C@@](O)(C(=O)CO)C[C@@H]3O[C@H]1C[C@H](N)[C@H](O)[C@H](C)O1 [doxorubicin, reference compound] | – | toxicity of doxorubicin alone to AR 1.0 cells (AR 1.0 cells [2]): non-toxic |
| 6 µM | Cn1c(=O)/c(=C/c2ccccc2)nc(OCCCN2C(=O)C(=O)c3ccccc32)/c1=C/c1ccccc1 [Compound 1935, (3Z,6Z)-3,6-Dibenzylidene-5-(2,3-dioxo-1-indolinyl)propoxy-1-methyl-3,6-dihydro-2-pyrazinone] | – | – |
| – | COc1ccc(/C=c2/c(=O)[nH]/c(=C\c3ccoc3)c(=O)n2C)cc1 [Compound 1563, (3Z,6Z)-3-(3-Furyl)methylene-6-(4-methoxybenzylidene)-1-methyl-2,5-piperazinedione] | 32.9% | – |
| – | COc1ccc(/C=c2\[nH]c(=O)/c(=C/c3ccoc3)n(C)c2=O)cc1 [Compound 1596] | 47.7% | – |
| – | Cn1c(=O)/c(=C/c2ccccc2)[nH]c(=O)/c1=C/c1ccsc1 [Compound 1641, (3Z,6Z)-3-Benzylidene-1-methyl-6-(3-thienylmethylene)-2,5-piperazinedione] | 50.5% | – |
